Measurements from patent publication US7880007B2, “Bicyclic substituted phenyl piperidine modulators of muscarinic receptors” (Vertex Pharmaceuticals Incorporated, priority 2004, dated 2011).

What was measured:
Type in all cases: cell-based
M3 muscarinic receptor = molecular target: T1, M3 muscarinic receptor (Homo sapiens, UniProt P20309); assay: Functional mobilization of intracellular calcium (FLIPR), M3-CHO cells; settings: for Emax: 100% efficacy = maximum response obtained with the Carbachol control; for M3 Activity: M3-CHO cells, calcium mobilization (FLIPR)
T1 construct: expressed in transfected cells; host or cells: CHO (M3-CHO)
T1 sequence (P20309 whole entry): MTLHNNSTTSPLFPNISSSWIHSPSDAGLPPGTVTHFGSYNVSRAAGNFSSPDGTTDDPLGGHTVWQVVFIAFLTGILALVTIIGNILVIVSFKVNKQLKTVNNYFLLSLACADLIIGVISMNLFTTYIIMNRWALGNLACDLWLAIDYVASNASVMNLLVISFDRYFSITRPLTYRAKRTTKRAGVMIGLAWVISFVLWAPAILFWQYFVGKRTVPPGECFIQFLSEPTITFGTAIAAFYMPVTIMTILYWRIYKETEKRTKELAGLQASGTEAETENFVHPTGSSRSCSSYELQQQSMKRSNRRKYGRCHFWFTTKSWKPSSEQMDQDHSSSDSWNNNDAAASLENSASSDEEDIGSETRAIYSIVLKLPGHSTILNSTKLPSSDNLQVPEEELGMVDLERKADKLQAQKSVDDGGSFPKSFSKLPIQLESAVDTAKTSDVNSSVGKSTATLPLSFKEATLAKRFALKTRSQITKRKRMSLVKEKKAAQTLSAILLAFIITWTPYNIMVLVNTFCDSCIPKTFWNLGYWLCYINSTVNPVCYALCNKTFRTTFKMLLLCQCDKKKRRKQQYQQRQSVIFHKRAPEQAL
Procedure, shortened: (§1)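 Calcium mobilisation read by FLIPR over 60 s (ex 488/em 540 nm) in recombinant muscarinic CHO lines loaded with calcium dye plus 1 mM probenecid. Compounds tested as agonists alone, or as inhibitors against EC80 carbachol after 15 min pre-incubation or co-addition; 0.5% DMSO; efficacy scaled to carbachol maximal response.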

M2 muscarinic receptor = molecular target: T2, M2 muscarinic receptor (Homo sapiens, UniProt P08172); assay: Functional mobilization of intracellular calcium (FLIPR), M2-CHO cells; settings: for Emax: 100% efficacy = maximum response obtained with the Carbachol control; for M2 Activity: M2-CHO cells, calcium mobilization (FLIPR)
T2 construct: expressed in transfected cells; host or cells: CHO (M2-CHO)
T2 sequence (P08172 1-466): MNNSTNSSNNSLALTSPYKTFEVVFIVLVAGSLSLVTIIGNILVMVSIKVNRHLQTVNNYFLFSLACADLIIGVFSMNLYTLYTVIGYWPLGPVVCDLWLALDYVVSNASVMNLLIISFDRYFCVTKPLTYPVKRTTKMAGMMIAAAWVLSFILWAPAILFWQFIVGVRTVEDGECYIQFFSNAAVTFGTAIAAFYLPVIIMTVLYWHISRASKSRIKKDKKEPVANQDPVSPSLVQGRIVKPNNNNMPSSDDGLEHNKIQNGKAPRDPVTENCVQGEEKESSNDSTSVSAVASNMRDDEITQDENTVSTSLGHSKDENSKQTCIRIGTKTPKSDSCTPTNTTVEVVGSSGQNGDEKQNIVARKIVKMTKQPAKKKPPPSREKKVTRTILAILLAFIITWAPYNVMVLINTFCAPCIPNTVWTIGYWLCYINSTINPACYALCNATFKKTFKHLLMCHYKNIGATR
Procedure, shortened: as §1

M4 muscarinic receptor = molecular target: T3, M4 muscarinic receptor (Homo sapiens, UniProt P08173); assay: Functional mobilization of intracellular calcium (FLIPR), M4-CHO cells; settings: for Emax: 100% efficacy = maximum response obtained with the Carbachol control; for M4 Activity: M4-CHO cells, calcium mobilization (FLIPR)
T3 construct: expressed in transfected cells; host or cells: CHO (M4-CHO)
T3 sequence (P08173 1-479): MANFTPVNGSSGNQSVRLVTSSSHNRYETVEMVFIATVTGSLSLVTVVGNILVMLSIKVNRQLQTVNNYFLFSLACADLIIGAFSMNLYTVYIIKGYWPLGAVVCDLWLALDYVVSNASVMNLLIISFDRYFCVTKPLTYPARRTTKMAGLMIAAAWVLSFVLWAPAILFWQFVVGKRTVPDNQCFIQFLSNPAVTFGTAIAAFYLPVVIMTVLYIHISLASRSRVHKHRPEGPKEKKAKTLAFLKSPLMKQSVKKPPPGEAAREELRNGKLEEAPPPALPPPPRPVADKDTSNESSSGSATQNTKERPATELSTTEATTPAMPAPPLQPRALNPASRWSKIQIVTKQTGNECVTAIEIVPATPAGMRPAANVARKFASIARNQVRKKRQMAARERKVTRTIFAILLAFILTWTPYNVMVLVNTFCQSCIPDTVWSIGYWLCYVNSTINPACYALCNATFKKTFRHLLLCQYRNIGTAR
Procedure, shortened: as §1

M1 muscarinic receptor = molecular target: T4, M1 muscarinic receptor (Homo sapiens, UniProt P11229); assay: Functional mobilization of intracellular calcium (FLIPR), M1-CHO cells; settings: for Emax: 100% efficacy = maximum response obtained with the Carbachol control; for M1 Activity: M1-CHO cells, calcium mobilization (FLIPR)
T4 construct: expressed in transfected cells; host or cells: CHO (M1-CHO)
T4 sequence (P11229 1-460): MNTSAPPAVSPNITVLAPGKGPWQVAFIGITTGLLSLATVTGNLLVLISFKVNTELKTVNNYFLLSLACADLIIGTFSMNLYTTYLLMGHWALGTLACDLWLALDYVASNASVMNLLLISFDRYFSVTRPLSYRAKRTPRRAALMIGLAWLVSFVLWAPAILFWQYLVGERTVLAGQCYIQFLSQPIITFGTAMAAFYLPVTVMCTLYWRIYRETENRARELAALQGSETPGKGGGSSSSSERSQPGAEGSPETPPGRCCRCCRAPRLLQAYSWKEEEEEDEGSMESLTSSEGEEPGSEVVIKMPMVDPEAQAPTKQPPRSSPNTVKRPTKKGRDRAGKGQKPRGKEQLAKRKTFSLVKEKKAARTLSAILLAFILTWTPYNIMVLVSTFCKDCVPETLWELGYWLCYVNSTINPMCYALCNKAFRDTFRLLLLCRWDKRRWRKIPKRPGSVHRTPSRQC
Procedure, shortened: as §1

| Structure (SMILES) | Emax (M3 muscarinic receptor) [%] | M3 Activity (M3 muscarinic receptor) | Emax (M2 muscarinic receptor) [%] | M2 Activity (M2 muscarinic receptor) | Emax (M4 muscarinic receptor) [%] | M4 Activity (M4 muscarinic receptor) | Emax (M1 muscarinic receptor) [%] | M1 Activity (M1 muscarinic receptor) |
| --- | --- | --- | --- | --- | --- | --- | --- | --- |
| COc1cc(F)ccc1C1CCN([C@@H]2C[C@H]3CC[C@H]2C3)CC1 [Compound 35] | < 25 | + (activity was measured to be greater than 5.0 μM) | < 25 | + (activity was measured to be greater than 5.0 μM) | 25 to 100 | +++ (activity was measured to be less than 1.0 μM) | 25 to 100 | + (activity was measured to be greater than 5.0 μM) |
| CNC(=O)c1ccc(-c2ccc(OC)c(C3CCN(C4CCCCC4)CC3)c2)cc1 [Compound 36] | < 25 | + (activity was measured to be greater than 5.0 μM) | < 25 | + (activity was measured to be greater than 5.0 μM) | 25 to 100 | ++ (activity was measured to be from 1.0 μM to 5.0 μM) | < 25 | + (activity was measured to be greater than 5.0 μM) |
| COc1ccccc1C1CC2CCC(C1)N2C1CCOCC1 (centres unmarked) [Compound 37] | < 25 | + (activity was measured to be greater than 5.0 μM) | < 25 | + (activity was measured to be greater than 5.0 μM) | < 25 | + (activity was measured to be greater than 5.0 μM) | < 25 | + (activity was measured to be greater than 5.0 μM) |
| COc1ccccc1C1CCN(C2CCC[C@@H](C)C2)CC1 (some centres unmarked) [Compound 38] | < 25 | + (activity was measured to be greater than 5.0 μM) | < 25 | + (activity was measured to be greater than 5.0 μM) | 25 to 100 | +++ (activity was measured to be less than 1.0 μM) | < 25 | + (activity was measured to be greater than 5.0 μM) |
| CCOC(=O)N1CCC(CN2CCC(c3cc(F)ccc3OC)CC2)CC1 [Compound 39] | < 25 | + (activity was measured to be greater than 5.0 μM) | 25 to 100 | +++ (activity was measured to be less than 1.0 μM) | 25 to 100 | +++ (activity was measured to be less than 1.0 μM) | 25 to 100 | +++ (activity was measured to be less than 1.0 μM) |
| COc1ccc(F)cc1C1(F)CCN(C2CC3CCC(C3)C2)CC1 (centres unmarked) [Compound 40] | < 25 | + (activity was measured to be greater than 5.0 μM) | 25 to 100 | + (activity was measured to be greater than 5.0 μM) | 25 to 100 | +++ (activity was measured to be less than 1.0 μM) | 25 to 100 | ++ (activity was measured to be from 1.0 μM to 5.0 μM) |
| OC1(c2ccc(F)cc2F)CCN(C2C[C@H]3CC[C@H]2C3)CC1 (some centres unmarked) [Compound 41] | < 25 | + (activity was measured to be greater than 5.0 μM) | < 25 | + (activity was measured to be greater than 5.0 μM) | < 25 | + (activity was measured to be greater than 5.0 μM) | < 25 | + (activity was measured to be greater than 5.0 μM) |
